The structures appear in SMILES notation.

The assay relates to healthy skin of light type II. The assay can be described thus: Photoprotection study in volunteers with oral carotinoid supplementation over 12 weeks. The format is in vivo, human. The procedure:
The carotinoid absorption and photoprotection studies were carried out using a panel of 36 volunteers with healthy skin of light type II (Fitzpatrick & Pathak test). The starting values for each volunteer were determined at the beginning of the 12-week study. An interim study was conducted after 6 weeks and the final study after 12 weeks. The volunteers were divided into three groups of twelve who received the following daily doses: • 1st group: 25 mg Betatene® (corresponds to 24 mg β-carotene) • 2nd group: 8.3 mg Betatene® (corresponds to 8 mg β-carotene), 8 mg lycopene, 8 mg lutein (Xangold®) • 3rd group: placebo capsules.
The carotinoids were administered in soft gelatine capsules with 140 mg soybean oil.
The concentration of β-carotene, lycopene and lutein in the skin was determined by reflection spectrometry which was carried out on an area of 1 cm^2 of the forehead, the back of the hand, the palm of the hand, the inside of the lower arm and the back. The change in color of the skin during supplementation was differentiated by a Minolta chromameter (L, a, b system) into reddening of the skin (a values), yellow component (b values) and lightness of the skin (L values). The concentration of β-carotene, lycopene and lutein in the serum was determined by high-pressure liquid chromatography (HPLC). […]

Regarding `CC1=C(/C=C/C(C)=C/C=C/C(C)=C/C=C/C=C(C)/C=C/C=C(C)/C=C/C2=C(C)CCCC2(C)C)C(C)(C)CCC1` [β-carotene], the “photoprotection of the skin in relation to the blank value (in words)” value (12 weeks of daily oral dosing, versus placebo group 3) is given as “doubles the photoprotection of the skin”. For the same compound, where the note is “average of 12 volunteers per group after 12 weeks of daily oral dosing in soft gelatine capsules with soybean oil, relative to blank value (group 3, no carotinoids = 100), group 1: 24 mg β-carotene, group 2: 8 mg each of β-carotene, lycopene, lutein”, the Photoprotection is listed as 200 %-rel.
